Data published in patent US12239686B2, “Immune checkpoint inhibitor combinations” (LYTIX BIOPHARMA AS, priority 2014, dated 2025).
Non-standard residues stand in square brackets, D forms with d. Residues, ends and D or L forms follow the SMILES beside them. Dip = N[C@H](C(=O)O)C(c1ccccc1)c1ccccc1

Legend:
K5627/Gleevec = format: cell-based, human; settings: resistant
Procedure: Tumor cells were grown as adherent monolayers or as suspensions at 37° C. in a humidified atmosphere (5% CO2, 95% air). The culture medium was RPMI 1640 containing 2 mM L-glutamine (Lonza, Belgium) and supplemented with 10% fetal bovine serum (FBS, Lonza). For experimental use, the adherent cells were detached from the culture flask by a 5-minute treatment with trypsin-versene (Lonza), diluted in Hanks' medium without calcium or magnesium (Lonza) and neutralized by addition of complete culture medium. Cells were counted in a hemocytometer and their viability was assessed by 0.25% trypan blue exclusion. […]
Three independent experiments were performed, each concentration being tested in quadruplicate. […] At the end of treatments, the cytotoxic activity was evaluated by a MTS assay (see § 3.3). […]
At the end of the cells treatment, 40 μl of a 0.22 μm filtered freshly combined solution of MTS (20 ml at 2 mg/ml, Ref G1111, Batch 235897, Exp 03/2009, Promega, Charbonnières, France) and PMS (1 ml at 0.92 mg/ml, Ref P9625, Batch 065K0961, Sigma) in Dulbecco's Phosphate Buffered Saline (DPBS, Ref 17-513Q, Batch 6MB0152, Cambrex), were added in each well. […] Absorbency (OD) were measured at 490 nm in each well using VICTOR^3TM 1420 multilabeled counter (Wallac, PerkinElmer, Courtaboeuf, France). […]

[1] = test system: murine A20 B cell lymphoma cells; test: Re-challenge with A20 cells in mice with complete tumour regression; format: in vivo
Procedure: Methods: Female Balb-c mice (n=4), previously treated with LTX-315, 1 mg) or (n=9); previously treated with LTX-315 0.5 or 1 mg) were re-inoculated (s.c. in the abdominal area) with either murine A20 B cell lymphoma cells or CT26WT colon carcinoma cells (5 million) respectively 6 weeks following initial treatment with LTX-315. Tumour growth was monitored for up to 36 days following re-inoculation.

[2] = test system: murine A20 B-cell lymphoma; test: Adoptive spleen cell transfer, A20 B-cell lymphoma model; format: in vivo, mice; settings: donors: LTX-315 1 mg intratumoural once daily 3 days, complete regression
Procedure: […] Balb/c mice (n=32) were each inoculated with A20 cells (5 million in 50 μL s.c.) on the abdominal surface. Once tumours had reached 20 mm^2 they were injected with LTX-315 (1 mg) injected intratumourally, once daily for 3 days, in a volume of 50 μL. Tumour size (mm^2) and body weight were subsequently monitored and a further injection of LTX-315 was given if any tumour re-growth was observed. Subsequently, mice showing complete tumour regression were sacrificed and used as donors for transfer of splenocytes while naive donor mice were used as controls. Spleens from donor mice were excised and cells isolated. Naive receiver mice were irradiated and divided into 2 groups. Group 1 received isolated splenocytes from cured mice, whereas group 2 received isolated splenocytes from naive mice. Freshly prepared cells were injected (20×106 per 100 μl) via the tail vein. Twenty four hours later receiver mice were inoculated with 5 million murine A20 B-cell lymphoma cells on the abdominal surface as described above. Tumour size and body weight were monitored until the maximum tumour burden of ˜125 mm^2 was reached, or a serious adverse events occurred (i.e. wound formation due to tumour tissue necrosis) at which point mice were sacrificed.

A375 cells [3] = test: TEM electron microscopy, ultrastructural changes; format: cell-based, human
Procedure: A375 cells were seeded at 1×10^5 cells per well in 6-well plates and allowed to grow for three days to optimize membrane structures in the culture, and the media was changed on the second day. Cells were washed twice in serum-free RPMI before being treated with LTX-315 dissolved in serum-free RPMI at 5, 10 and 25 μg/ml, with serum-free RPMI as a negative control. Cells were then washed with PBS twice before fixation for 24 hours in 4° C. with 4% formaldehyde and 1% gluteralaldehyde in a Hepes buffer at pH 7.8. Dehydration and post-fixation protocols included incubation in a 5% buffered tannic acid and incubation in a 1% osmium-reduced ferrocyanide. Ultrathin sections were prepared, and uranyl acetate (5%) and Reynolds's lead citrate were used for staining and contrasting. Samples were examined on a JEOL JEM-1010 transmission electron microscope, and images were taken with an Olympus Morada side-mounted TEM CCD camera (Olympus soft imaging solutions, GmbH, Germany).

human A547 cells = test: TEM, mitochondrial membrane; format: cell-based; settings: 10 μg/ml, 60 minutes
Procedure: FIG. 16 LTX-315 disintegrates the mitochondria membrane. TEM images of FIG. 16a: human A547 melanoma cells treated with LTX-315 (10 μg/ml) for 60 minutes compared to FIG. 16b: control cells.

A375 cells [4] = test: Release of cytochrome-C, ELISA of supernatant; format: cell-based, human; settings: 35 μM; 5, 15, 45 min
Procedure: A375 cells were seeded as with HMGB1 studies, and treated with 35 μM for different time points (5, 15, 45). Supernatants were collected and concentrated as with HMGB1 studies, and samples from the supernatants were analyzed using a 4.5 hour solid form Cytochrome C-Elisa kit (R&D Systems, USA, #DCTC0) following the manufacturer's description. Shortly thereafter, a 50% diluted sample was analyzed and the optical density was determined using a microplate reader set at 450 nm, and […]. A standard curve was generated for each set of samples assayed. Samples were run in four parallels, and the cytochrome-c released into the supernatant was expressed as a fold over the level of cytochrome-c in the supernatant of untreated cells.

NCCCC[C@H](NC(=O)[C@@H](NC(=O)[C@H](Cc1c[nH]c2ccccc12)NC(=O)[C@H](CCCCN)NC(=O)[C@H](CCCCN)NC(=O)[C@H](Cc1c[nH]c2ccccc12)NC(=O)[C@H](Cc1c[nH]c2ccccc12)NC(=O)[C@H](CCCCN)NC(=O)[C@@H](N)CCCCN)C(c1ccccc1)c1ccccc1)C(N)=O [LTX-315, K-K-W-W-K-K-W-Dip-K-NH2] (H-KKWWKKW[Dip]K-NH2)
IC50 (K5627/Gleevec): 2980 nM | tumour growth after re-inoculation compared with control animals ([1]; 4 mice previously treated with LTX-315 1 mg, re-inoculated 6 weeks later, P<0.006): Significant inhibition | mice with complete tumour regression after re-inoculation ([1]; of 4 re-inoculated mice): 3 mice | animals with relapse after re-inoculation ([1]; of 4 re-inoculated mice, 3 weeks later): 1 animal | tumour growth in irradiated recipients of splenocytes from LTX-315-cured donors vs naive donors [2]: Inhibition of tumour growth was observed | cells with vacuolization (A375 cells [3]; 3.5 μM): approximately 20% | number of necrotic cells (A375 cells [3]; 3.5 μM, 60 minutes): less than 5% | cells displaying vacuolization (A375 cells [3]; 17 μM, 60 min): 4% | cells with necrotic morphology with loss of plasma membrane integrity (A375 cells [3]; 17 μM, 60 min): approximately 40% | effect on the mitochondrial membrane (TEM) (human A547 cells): disintegration of the mitochondrial membrane | cytochrome-C in the supernatant vs untreated control cells (A375 cells [4]): three times more cytochrome-C in the supernatant compared to untreated control cells
